In US7897781B2, “Cold menthol receptor-1 antagonists” (Janssen Pharmaceutica NV, priority 2006, dated 2011):
Where “and” joins values, the source holds several entries; their conditions need not be identical. Equal values may be shown once.

Target: T1, canine TRPM8 (Canis lupus familiaris, UniProt Q1A7N1)
T1 construct: expressed in transfected cells
Assay: In vitro canine TRPM8 functional assay (Ca2+-sensitive dye, icilin activation; Table 4 TRPM8 Screening)
Format: cell-based
Conditions: compound at 0.5 μM; HEK293 cells expressing canine TRPM8, icilin activation
Method: The functional activity of compounds of Formula (I) was determined by measuring changes in intracellular calcium concentration using a Ca^2+-sensitive fluorescent dye. The changes in fluorescent signal were monitored by a fluorescence plate reader, either a FLIPR™ (Molecular Devices) or FDSS (Hamamatsu).
HEK293 cells stably expressing canine TRPM8 were routinely grown as monolayers in Dulbecco's minimum essential medium supplemented with 10% FBS, 1 mM L-glutamine, 100 units/mL penicillin, 100 ug/mL streptomycin and 400 μg/mL G418. Cells were maintained in 5% CO2 at 37° C. At 24 hrs prior to assay, cells were seeded in clear-base poly-D-lysine coated 384-well plates (BD Biosciences, NJ, USA) at a density of 5,000 cells per well in culture medium and grown overnight in 5% CO2 at 37° C. On assay day, growth media was removed and cells were loaded with Calcium 3 Dye (Molecular Devices) for 35 min at 37° C., under 5% CO2 and then for 25 min at room temperature and atmosphere. Subsequently, cells were tested for agonist-induced increases in intracellular Ca^2+ levels using FLIPR™ or FDSS. Cells were challenged with a compound of Formula (I) (at varying concentrations) and intracellular Ca^2+ was measured for 5 min prior to the addition of icilin to all wells to achieve a final concentration which produces approximately an 80% maximal response.
Basal FI was subtracted prior to normalizing data to percent of maximal response. Curves were generated using the average of quadruplicate wells for each data point, were analyzed using nonlinear regression of either sigmoidal dose response or sigmoidal dose response (variable slope). Finally, the EC50 and IC50 values were calculated with the best-fit dose curve determined by GraphPad Prism.

T1 sequence (Q1A7N1 1-1104): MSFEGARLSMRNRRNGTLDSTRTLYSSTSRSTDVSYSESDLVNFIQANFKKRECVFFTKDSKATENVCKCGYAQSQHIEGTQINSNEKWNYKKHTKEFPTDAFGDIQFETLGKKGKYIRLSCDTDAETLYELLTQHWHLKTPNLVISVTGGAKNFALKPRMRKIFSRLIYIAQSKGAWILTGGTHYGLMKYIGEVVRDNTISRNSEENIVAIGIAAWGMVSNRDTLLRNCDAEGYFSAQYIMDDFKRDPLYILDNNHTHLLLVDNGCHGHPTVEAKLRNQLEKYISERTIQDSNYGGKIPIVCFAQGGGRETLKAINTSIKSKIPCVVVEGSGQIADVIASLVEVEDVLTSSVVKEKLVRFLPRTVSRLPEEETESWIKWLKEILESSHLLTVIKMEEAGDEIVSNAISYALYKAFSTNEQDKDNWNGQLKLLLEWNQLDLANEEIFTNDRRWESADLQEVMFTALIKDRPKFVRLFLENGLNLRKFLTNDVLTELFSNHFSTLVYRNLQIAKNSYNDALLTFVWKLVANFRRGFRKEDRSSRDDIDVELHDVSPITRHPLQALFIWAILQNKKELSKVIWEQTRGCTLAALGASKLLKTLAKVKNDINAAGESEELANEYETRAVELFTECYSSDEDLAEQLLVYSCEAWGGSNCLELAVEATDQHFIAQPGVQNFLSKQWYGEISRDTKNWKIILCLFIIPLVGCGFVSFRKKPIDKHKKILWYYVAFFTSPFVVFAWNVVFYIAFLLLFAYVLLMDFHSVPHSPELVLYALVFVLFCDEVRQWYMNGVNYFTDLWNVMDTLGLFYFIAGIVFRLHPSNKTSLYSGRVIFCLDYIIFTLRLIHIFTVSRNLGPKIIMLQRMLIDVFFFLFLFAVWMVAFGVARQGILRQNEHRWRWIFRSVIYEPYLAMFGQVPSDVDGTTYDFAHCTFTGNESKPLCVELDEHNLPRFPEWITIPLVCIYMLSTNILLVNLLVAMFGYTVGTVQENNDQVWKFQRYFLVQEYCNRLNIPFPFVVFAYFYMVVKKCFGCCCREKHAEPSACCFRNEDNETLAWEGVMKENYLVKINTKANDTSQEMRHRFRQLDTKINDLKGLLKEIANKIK

Point of comparison: `CCOP(=O)(OCC)C(Cc1ccc(O)c(C(F)(F)F)c1)c1sc2ccccc2c1Br` (stereo not drawn) [Cpd 233], “% I (0.5 μM)” value 70%. Against it:
- CCOP(=O)(OCC)C(Cc1cc(C(F)(F)F)ccc1Cl)c1sc2ccccc2c1Cl (stereo not drawn) [Cpd 274] — higher, 95%
- CC(=O)OCCOP(=O)(OCCOC(C)=O)C(Cc1ccc(F)c(F)c1)c1sc2ccccc2c1Br (racemic) [Cpd 213] — higher, 100%
- CCOP(=O)(OCC)C(Cc1ccc(O)cc1)c1sc2ccccc2c1Br (stereo not drawn) [Cpd 324] — lower, 54%
- CCOP(=O)(OCC)C(Cc1ccc(OC)c(C(F)(F)F)c1)c1sc2ccccc2c1Br (racemic) [Cpd 152] — higher, 92%
- CC(C)OP(=O)(OC(C)C)C(Cc1ccc(O)c(F)c1)c1sc2ccccc2c1Br (stereo not drawn) [Cpd 227] — lower, 52%
- CCOP(=O)(OCC)C(Cc1ccc(F)c(F)c1)c1sc2ccccc2c1-c1cccc(C(N)=O)c1 (racemic) [Cpd 218] — higher, 79%
- CCOP(=O)(OCC)C(Cc1cccc(C(F)(F)F)c1)c1sc2ccccc2c1Br (stereo not drawn) [Cpd 141] — higher, 100%
- CC(C)OP(=O)(OC(C)C)C(Cc1cc(O)c(Cl)cc1F)c1sc2ccccc2c1Br (racemic) [Cpd 232] — higher, 99%
- CC(C)OP(=O)(OC(C)C)C(Cc1ccc(F)c(F)c1)c1sc2ncccc2c1Br (racemic) [Cpd 207] — higher, 99%
- CC(C)OP(=O)(OC(C)C)C(Cc1cccc(C(F)(F)F)c1Cl)c1sc2ccccc2c1Cl (stereo not drawn) [Cpd 177] — higher, 96%
- CC(C)OP(=O)(OC(C)C)C(Cc1ccc(S(C)(=O)=O)cc1)c1sc2ccccc2c1Br (stereo not drawn) [Cpd 252] — lower, 44%
- CCOP(=O)(OCC)C(Cc1cc(O)c(Cl)cc1F)c1sc2ccccc2c1Br (racemic) [Cpd 231] — higher, 98%
- CCOP(=O)(OCC)C(Cc1ccc(O)c(F)c1)c1sc2ccccc2c1Br (stereo not drawn) [Cpd 226] — lower, 34%
- CCOP(=O)(OCC)C(Cc1ccc(F)c(OC)c1)c1sc2ccccc2c1Br (stereo not drawn) [Cpd 156] — higher, 98%
- CCOP(=O)(OCC)C(Cc1c(F)c(F)c(OC)c(F)c1F)c1sc2ccccc2c1Br (racemic) [Cpd 160] — higher, 87%
- CCOP(=O)(OCC)C(Cc1ccc(OC)c(C(F)(F)F)c1)c1sc2ccccc2c1Cl (racemic) [Cpd 292] — higher, 99%

Same assay, conditions: compound at 0.5 μM; HEK293 cells expressing canine TRPM8, icilin activation; read-out: % I (0.5 μM)

`CC(C)OP(=O)(OC(C)C)C(Cc1ccc(F)c(C(F)(F)F)c1)c1c(Br)c2ccccc2n1S(C)(=O)=O` (stereo not drawn) [Cpd 330, [1-(3-Bromo-1-methanesulfonyl-1H-indol-2-yl)-2-(4-fluoro-3-trifluoromethyl-phenyl)-ethyl]-phosphonic acid diisopropyl ester] was tested, and the inhibition at 0.5 µM was 103%.

Same assay, conditions: compound at 1 μM; HEK293 cells expressing canine TRPM8, icilin activation

Point of comparison: `Cc1c(C(Cc2ccc(F)c(F)c2)P(=O)(OCC(C)(C)C)OCC(C)(C)C)sc2ccccc12` (stereo not drawn) [Cpd 53, [2-(3,4-Difluoro-phenyl)-1-(3-methyl-benzo[b]thiophen-2-yl)ethyl]-phosphonic acid bis-(2,2-dimethyl-propyl) ester], “% I (1 μM)” value 97%. Against it:
- [2-(3,4-Difluoro-phenyl)-1-(3-methyl-benzo[b]thiophene-2-yl)-ethyl]-[3-(4-methoxy-phenyl)-propyl]-phosphonic acid ethyl ester [Cpd 136] — lower, 91%
- CCOP(=O)(OCC)C(Cc1cc(C(F)(F)F)cc(C(F)(F)F)c1)c1cc2ccccc2s1 (stereo not drawn) [Cpd 96] — lower, 92%
- [2-(3,4-Difluoro-phenyl)-1-(3-methyl-benzo[b]thiophene-2-yl)-ethyl]-methyl-phosphonic acid ethyl ester [Cpd 106] — lower, 32%
- CCOP(=O)(OCC)C(Cc1ccccc1F)c1cc2ccccc2s1 (stereo not drawn) [Cpd 80] — lower, 93%
- CCOP(=O)(OCC)C(Cc1cccc(C(F)(F)F)c1)c1cc2ccccc2s1 (stereo not drawn) [Cpd 39] — higher, 100%
- CCOP(=O)(OCC)C(Cc1cccc(OC(F)(F)F)c1)c1sc2ccccc2c1C (stereo not drawn) [Cpd 57] — higher, 100%
- CCOP(=O)(OCC)C(Cc1ccc(F)cc1Cl)c1cc2ccccc2s1 (stereo not drawn) [Cpd 98] — lower, 79%
- CCOP(=O)(CC(C)C)C(Cc1ccc(F)c(F)c1)c1sc2ccccc2c1C (stereo not drawn) [Cpd 6, [2-(3,4-Difluoro-phenyl)-1-(3-methyl-benzo[b]thiophene-2-yl)-ethyl]-isobutyl-phosphonic acid ethyl ester] — higher, 100%
- CCOP(=O)(OCC)C(Cc1ccc(F)c(F)c1)c1cc2cccnc2s1 (stereo not drawn) [Cpd 131] — lower, 28%
- CCOP(=O)(OCC)C(Cc1ccccc1)c1cc2ccccc2s1 (stereo not drawn) [Cpd 74] — lower, 92%
- CC(C)OP(=O)(OC(C)C)C(Cc1ccc(F)c(F)c1)c1sc2ccccc2c1C1CCCC1 (stereo not drawn) [Cpd 38] — higher, 99%
- CCOP(=O)(OCC)C(Cc1ccccc1C)c1cc2ccccc2s1 (stereo not drawn) [Cpd 89] — lower, 91%
- CCOP(=O)(OCC)C(Cc1ccccc1-c1ccccc1)c1sc2ccccc2c1C (stereo not drawn) [Cpd 115] — lower, 69%
- CCOP(=O)(OCC)C(Cc1ccc2ccccc2c1)c1sc2ccccc2c1C (stereo not drawn) [Cpd 46] — higher, 99%
- CCOP(=O)(Cc1cc2ccccc2s1)OCc1ccccc1Br (stereo not drawn) [Cpd 110] — lower, 11%
- CCOP(=O)(Cc1cc2ccccc2s1)OCc1ccccc1Cl (racemic) [Cpd 105] — lower, 48%
- CCOP(=O)(OCC)C(Cc1cc(F)c(Cl)cc1Cl)c1sc2ccccc2c1C (stereo not drawn) [Cpd 76] — higher, 100%
- CCOP(=O)(OCC)C(Cc1ccccc1C)c1sc2ccccc2c1C (stereo not drawn) [Cpd 26] — higher, 100%
- CC(C)OP(=O)(OC(C)C)C(Cc1cccc(C(F)(F)F)c1)c1cc2ccccc2s1 (stereo not drawn) [Cpd 69] — higher, 99%
- CCOP(=O)(OCC)C(Cc1cc(F)cc(F)c1Cl)c1sc2ccccc2c1C (stereo not drawn) [Cpd 28] — higher, 100%
- CCOP(=O)(OCC)C(Cc1cccc(Cl)c1F)c1sc2ccccc2c1C (stereo not drawn) [Cpd 23] — higher, 100%
- CCOP(=O)(OCC)C(Cc1ccccc1OC(F)(F)F)c1sc2ccccc2c1C (stereo not drawn) [Cpd 61] — higher, 100%
- CCOP(=O)(OCC)C(Cc1ccc(F)c(F)c1)c1c(C)c2ccccc2[s+]1[O-] (stereo not drawn) [Cpd 118] — lower, 23%
- CCOP(=O)(OCC)C(Cc1cc2ccccc2s1)c1cc2ccccc2s1 (stereo not drawn) [Cpd 90] — lower, 89%
- CCOP(=O)(CC(C)C)C(Cc1ccc(F)c(F)c1)c1sc2ccccc2c1C (stereo not drawn) [Cpd 36, [2-(3,4-Difluoro-phenyl)-1-(3-methyl-benzo[b]thiophene-2-yl)-ethyl]-isobutyl-phosphonic acid ethyl ester] — higher, 100%
- CCOP(=O)(OCC)C(Cc1ccc2ccccc2c1)c1cc2ccccc2s1 (stereo not drawn) [Cpd 83] — lower, 84%
- CCOP(=O)(OCC)C(Cc1cccc(C(F)(F)F)c1F)c1sc2ccccc2c1C (stereo not drawn) [Cpd 37] — higher, 100%
- CCOP(=O)(OCC)C(Cc1cccc(Cl)c1Cl)c1sc2ccccc2c1C (stereo not drawn) [Cpd 35] — higher, 100%
- CCOP(=O)(OCC)C(Cc1cccc(Cl)c1Cl)c1cc2ccccc2s1 (stereo not drawn) [Cpd 100] — lower, 82%
- CCOP(=O)(OCC)C(Cc1ccccc1Cl)c1cc2ccccc2s1 (stereo not drawn) [Cpd 85] — lower, 90%
- COP(=O)(OC)C(Cc1ccc(F)c(F)c1)c1sc2ccccc2c1Br (stereo not drawn) [Cpd 201] — higher, 100%
- CCOP(=O)(OCC)C(Cc1cccc(F)c1F)c1sc2ccccc2c1C (stereo not drawn) [Cpd 10] — higher, 100%
- CC(C)OP(=O)(OC(C)C)C(Cc1ccccc1F)c1sc2ccccc2c1Br (stereo not drawn) [Cpd 196] — higher, 100%
- CC(C)OP(=O)(OC(C)C)C(Cc1ccc(F)c(F)c1)c1sc2ccccc2c1C(C)C (stereo not drawn) [Cpd 19] — higher, 100%
- CCOP(=O)(OCC)C(Cc1ccc(F)c(F)c1)c1sc2c(C(F)(F)F)cccc2c1C (stereo not drawn) [Cpd 116] — lower, 64%
- CCOP(=O)(OCC)C(Cc1ccc(Br)cc1)c1cc2ccccc2s1 (stereo not drawn) [Cpd 70] — lower, 82%
- CCOP(=O)(OCC)C(Cc1ccc(F)c(F)c1)c1oc2cccc(F)c2c1Br (racemic) [Cpd 206] — higher, 100%
- CCOP(=O)(OCC)C(Cc1ccc(F)cc1Cl)c1sc2ccccc2c1C (stereo not drawn) [Cpd 27] — higher, 99%
- CCOP(=O)(OCC)C(Cc1cc(C(F)(F)F)ccc1Cl)c1sc2ccccc2c1C (stereo not drawn) [Cpd 99] — higher, 100%
- CCOP(=O)(OCC)C(Cc1c(Cl)ccc(C)c1F)c1sc2ccccc2c1C (stereo not drawn) [Cpd 60] — higher, 100%

For `CCOP(=O)(OCC)C(Cc1cccc(C(F)(F)F)c1Cl)c1sc2ccccc2c1C` (stereo not drawn) [Cpd 81], the “% I (1 μM)” value was 100% and 87%.
`CC(C)OP(=O)(OC(C)C)C(Cc1ccc(F)c(F)c1)c1sc2ccccc2c1Br` (stereo not drawn) [Cpd 15, [1-(3-Bromo-benzo[b]thiophen-2-yl)-2-(3,4-difluoro-phenyl)ethyl]-phosphonic acid diisopropyl ester] was tested, and the “% I (1 μM)” value was 100% and 103%.
In the case of “[2-(3,4-Difluoro-phenyl)-1-(3-methyl-benzo[b]thiophene-2-yl)-ethyl]-methyl-phosphonic acid ethyl ester [Cpd 30]”, the “% I (1 μM)” value is reported as 100% and 99%.

Same assay, conditions: compound at 5 μM; HEK293 cells expressing canine TRPM8, icilin activation

Point of comparison: `CCOP(=O)(OCC)C(Cc1ccccc1Cl)c1cc2ccccc2s1` (stereo not drawn) [Cpd 85], “% I (5 μM)” value 100%. Against it:
- CCOP(=O)(OCC)C(Cc1ccccc1F)c1cc2ccccc2s1 (stereo not drawn) [Cpd 80] — the same, 100%
- CCOP(=O)(OCC)C(Cc1ccccc1C)c1cc2ccccc2s1 (stereo not drawn) [Cpd 89] — the same, 100%
- CCOP(=O)(Cc1cc2ccccc2s1)OCc1ccccc1Br (stereo not drawn) [Cpd 110] — lower, 96%
- CCOP(=O)(Cc1cc2ccccc2s1)OCc1ccccc1Cl (racemic) [Cpd 105] — the same, 100%
- CCOP(=O)(OCC)C(Cc1ccc(Br)cc1)c1cc2ccccc2s1 (stereo not drawn) [Cpd 70] — lower, 99%
- CCOP(=O)(Cc1cc2ccccc2s1)OCc1ccc(F)cc1 (stereo not drawn) [Cpd 107] — lower, 99%
